Molecular target: Human immunodeficiency virus type 1 reverse transcriptase (Human immunodeficiency virus 1, UniProt Q72547)
Experiment: Inhibitory concentration against human immunodeficiency virus type 1 reverse transcriptase

Row | IC50 [µM] | SMILES
1 | 2.1 | Cc1cn([C@H]2C[C@H](N=[N+]=[N-])[C@@H](CO[P@](=O)(O)O[P@](=O)(O)OP(=O)(O)O)O2)c(=O)[nH]c1=O [ZIDOVUDINE TRIPHOSPHATE]
2 | 3.28 | C#C[C@]1(COP(=O)(O)OP(=O)(O)OP(=O)(O)O)O[C@@H](n2cc(C)c(=O)[nH]c2=O)C[C@@H]1O

Source: ChEMBL document CHEMBL1141972, “4'C-ethynyl-thymidine acts as a chain terminator during DNA-synthesis catalyzed by HIV-1 reverse transcriptase” (Bioorg Med Chem Lett, 2005)
